The target of experiment [1] is T1, Aβ1-42 (Homo sapiens, UniProt P05067).
T1 construct: Samples of Aβ1-42 peptide (5 μM) alone or mixed with 5 or 25 μM of each ligand
Description: Electron microscopy of fibril formation from Aβ1-42 in the presence of ligands. Conditions: Aβ1-42 5 μM with 5 or 25 μM ligand, 37° C., 9 hours. In kind it is biochemical. Here is the method:
Samples of Aβ1-42 peptide (5 μM) alone or mixed with 5 or 25 μM of each ligand in a volume of 100 μl, were incubated at 37° C. for 9 hours. Aliquotes of 2 μl were taken from the different samples, adsorbed on copper grids and negatively stained with 2.5% uranyl acetate in 50% ethanol. The samples were examined and photographed using a Hitachi H7100 microscope operated at 75 kV.

Experiment [2] concerns kainate-induced gamma oscillations. Description: Control: ligands alone on kainate-induced gamma oscillations in hippocampal slices (absence of Aβ). In kind it is cell-based, C57BL/6 mice. Here is the method:
(§1) Experiments were carried out in accordance with ethical permit granted by Norra Stockholms Djurförsöksetiska Nämnd to AF (N45/13). C57BL/6 mice of either sex (postnatal days 14-23, supplied from Charles River, Germany) were used in all experiments. The animals were deeply anaesthetized using isofluorane before being sacrificed by decapitation.
(§2) The brain was dissected out and placed in ice-cold ACSF (artificial cerebrospinal fluid) modified for dissection. This solution contained (in mM); 80 NaCl, 24 NaHCO3, 25 Glucose, 1.25 NaH2PO4, 1 Ascorbic acid, 3 NaPyruvate, 2.5 KCl, 4 MgCl2, 0.5 CaCl2, 75 Sucrose. Horizontal sections (350 μm thick) of the ventral hippocampi of both hemispheres were prepared with a Leica VT1200S vibratome (Microsystems, Stockholm, Sweden). Immediately after slicing sections were transferred to a submerged incubation chamber containing standard ACSF (in mM): 124 NaCl, 30 NaHCO3, 10 Glucose, 1.25 NaH2PO4, 3.5 KCl, 1.5 MgCl2, 1.5 CaCl2. The chamber was held at 34° C. for at least 20 minutes after dissection. It was subsequently allowed to cool to ambient room temperature (19-22° C.) for a minimum of 40 minutes. Peptides were added to the incubation solution 15 minutes before transferring slices to the interface-style recording chamber. While incubating slices were continuously supplied with carbogen gas (5% CO2, 95% O2) bubbled into the ACSF. Chemical compounds used in intracellular and extracellular solutions were obtained from Sigma-Aldrich Sweden AB (Stockholm, Sweden). The Kainic acid was obtained from Tocris.
(§3) Recordings were carried out in hippocampal area CA3 with borosilicate glass microelectrodes, pulled to a resistance of 3-7 MO. Local field potentials (LFP) were recorded at 34° C. using microelectrodes filled with ACSF placed in stratum pyramidale. LFP oscillations were elicited by applying kainic acid (100 nM) to the extracellular bath. The oscillations were allowed to stabilize for 20 minutes before any recordings were carried out. LFP recordings were performed with a 4 channel amplifier/signal conditioner M102-amplifier (Electronics lab, Faculty of Mathematics and Natural Sciences, University of Cologne, Cologne, Germany). The signals were sampled at 10 kHz, conditioned using a Hum Bug 50 Hz noise eliminator (Quest Scientific, North Vancouver, BC, Canada), software low-pass filtered at 1 kHz, digitized and stored using a Digidata 1322A and Clampex 9.6 software (Molecular devices, CA, USA).
(§4) Power spectral density plots (from 60 s long LFP recordings) were calculated in averaged Fourier-segments of 8192 points using Axograph X (Kagi, Berkeley, Calif., USA). Oscillation power was calculated by integrating the power spectral density between 20 and 80 Hz. Data is reported as means±standard errors of the means in the text and as median and upper/lower quartile in the figure box plots. For statistical analysis the Mann-Whitney U-test was used.

Experiment [3] deals with T1, Aβ1-42. Description: Prevention of Aβ-induced decrease of kainate-induced gamma oscillations in hippocampal slices (LFP, area CA3). It is filed as cell-based, C57BL/6 mice. The procedure: as §1, §2, §3, §4
The mark [4] stands for this setting: 50 nM ligand, equimolar (1:1) to 50 nM Aβ1-42, 15 min incubation.
[5] abbreviates: 250 nM ligand with 50 nM Aβ, 15 min incubation.

Entries after “also recorded” stand apart in the source; their conditions may differ.

This is an account of results in patent US10023610B2, “Ligands for prevention of neurotoxicity of the alzheimer's disease related amyloid-beta peptide” (AlphaBeta AB, priority 2014, dated 2018).

T1 sequence (P05067 672-713 limits assumed): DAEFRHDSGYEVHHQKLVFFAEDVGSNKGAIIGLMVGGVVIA

`CCCCCCCC[C@H](N)CNCC[C@H](N)C(=O)N[C@H](CCN1C(=O)c2cccc3c(N(C)C)ccc(c23)C1=O)C(=O)NCC[C@@H](NC(=O)CCCC(=O)O)C(=O)O` [8AEDabDmnDabGla, HO-Gla-D-Dab-(COOH)-D-DMNA-L-Dap-(NH2)—CH2CH(NH2)—C8]: the “fibril formation by Aβ1-42 (electron microscopy)” value (from here on “fibril formation”) at Aβ1-42 [1] is on record as “less fibrils”.
With `CCCCCCCCCC(=O)NCCNC[C@H](N)C(=O)N[C@H](Cc1c[nH]c2ccccc12)C(=O)NCC[C@@H](NC(=O)CCCC(=O)O)C(=O)O` [DH18, (R)—N^4—[N^2—(N^3—(N-decanoyl-2-aminoethyl)-(S)-2,3-diaminopropionyl)-D-tryptophanyl]-N^2-glutanoyl-2,4-diaminobutanoic acid], in experiment [2], the “effect of ligand alone on kainate-induced gamma oscillations” value (“effect of ligand alone” below) was “no effect”.
For the compound `CCCCCCCCCC(=O)NCCNC[C@H](N)C(=O)N[C@H](CCN1C(=O)c2cccc3c(N(C)C)ccc(c23)C1=O)C(=O)NCC[C@@H](NC(=O)CCCC(=O)O)C(=O)O` [DH18_Dmn, HO-Gla-D-Dab-(COOH)-D-DMNA-L-Dap-(NH2)-AE-decanoyl], the “effectiveness in preventing Aβ-induced degradation of network gamma oscillations compared with first generation ligands” value at Aβ1-42 [3] was “more effective than first generation ligands”. For the same compound, the “prevention of the Aβ-induced decrease of kainate-induced gamma oscillations” value at Aβ1-42 [3] (setting [4]) is reported as “complete prevention; also recorded: effective also at only a 1:1 ratio; also recorded: reverse Aβ-induced reduction of gamma oscillation; also recorded: prevention of Aβ-induced degradation of network gamma oscillations”. Besides, the “fibril formation” value at Aβ1-42 [1] is reported as “less fibrils”. Moreover, in experiment [2], the “effect of ligand alone” value was “neither of these ligands had an effect”.
For `NC(=O)CCCCCCCCCCC(=O)NCCNC[C@H](N)C(=O)N[C@H](Cc1c[nH]c2ccccc12)C(=O)NCC[C@@H](NC(=O)CCCC(=O)O)C(=O)O` [DH20, (R)—N^4—[N^2—(N^3—(N-(12-amino-12-oxododecanoyl)-2-aminoethyl)-(S)-2,3-diaminopropionyl)-D-tryptophanyl]-N^2-glutanoyl-2,4-diaminobutanoic acid], the “effectiveness in preventing Aβ-induced degradation of network gamma oscillations compared with first generation ligands” value on Aβ1-42 [3] is reported as “more effective than first generation ligands”. Also, the “prevention of the Aβ-induced decrease of kainate-induced gamma oscillations” value at Aβ1-42 [3] (setting [4]) is listed as “complete prevention”; on Aβ1-42 [3] (50 nM ligand, equimolar (1:1) to 50 nM Aβ1-42, 15 min incubation, listed as DH-20) it was “effective also at only a 1:1 ratio; also recorded: reverse Aβ-induced reduction of gamma oscillation”; on Aβ1-42 [3] (setting [5]), “complete prevention; also recorded: reverses Aβ-induced reduction of gamma oscillation”. On Aβ1-42 [1], the “fibril formation” value was “less fibrils”. The “effect of ligand alone” value in experiment [2] was “neither of these ligands had an effect; also recorded: no effect”.
With `CCCCCCCCCC(=O)NCCNCCN` [Dec-DETA, reference compound], the “prevention of the Aβ-induced decrease of kainate-induced gamma oscillations” value at Aβ1-42 [3] (setting [5]) is listed as “higher prevention”. Also, in experiment [2], the “effect of ligand alone” value is reported as “neither of these ligands had an effect”.
As to `N=C(N)CCNCCCC(N)C(=O)NC(Cc1c[nH]c2ccccc12)C(=O)NCCC(NC(=O)CCCC(=O)O)C(=O)O` (centres unmarked) [Pep1b, reference compound], the “prevention of the Aβ-induced decrease of kainate-induced gamma oscillations” value on Aβ1-42 [3] (setting [5]) is given as “only partial prevention”. For the same compound, the “fibril formation” value at Aβ1-42 [1] was “fibrils were formed but to somewhat lesser extent”. Moreover, the “effect of ligand alone” value in experiment [2] is reported as “neither of these ligands had an effect”.
